Legend:
BI-2493 [1] = compound: T1, C[C@H]1CNCCN1c1nccc(-c2noc3c2CCC[C@@]32CCCc3sc(N)c(C#N)c32)n1 [BI-2493]; experiment: 1 - AUC of viability dose-response curve (sensitivity) (fraction); higher = more sensitive; details: 5 days
Procedure: (§1)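 PRISM pooled barcoded cancer cell line viability screen (Broad Institute) with BI-2493 at 8 doses in threefold dilutions from 0.00457 to 10 µmol/L, 5-day treatment; curves fitted per cell line. IC50 is undefined (placeholder) for resistant lines. AUC is capped at 1, and sensitivity is reported as 1 − AUC.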

BI-2493 [2] = compound: T1, BI-2493; details: 5 days
Procedure: as §1

Test System	1 - AUC of viability dose-response curve (BI-2493 [1])	IC50 of cell viability (BI-2493 [2])
NCIH1092_LUNG	0.131	3.99 µM
NCIH1299_LUNG	0.0368	8.5 µM
NCIH1339_LUNG	0.0455	6.82 µM
NCIH1341_LUNG	0.146	> 10 µM
NCIH1355_LUNG	0.219	2.46 µM
NCIH1435_LUNG	0.0748	4.95 µM
NCIH1437_LUNG	0.153	4.73 µM
NCIH1563_LUNG	0.00763	9.88 µM
NCIH1568_LUNG	0.0444	7.78 µM
NCIH1573_LUNG	0.0775	7.27 µM
NCIH1581_LUNG	0.0823	8.08 µM
NCIH1623_LUNG	0.0102	9.93 µM
NCIH1648_LUNG	0.26	1.57 µM
NCIH1650_LUNG	0.042	8.06 µM
NCIH1694_LUNG	0.00415	> 10 µM
NCIH1703_LUNG	0.0509	> 10 µM
NCIH1792_LUNG	0.342	1.04 µM
NCIH1793_LUNG	0.16	8.29 µM
NCIH1838_LUNG	0.0993	> 10 µM
NCIH1876_LUNG	0.0823	3.89 µM
NCIH1915_LUNG	0.0137	9.46 µM
NCIH1944_LUNG	0.22	8.69 µM
NCIH1975_LUNG	0.0712	6.8 µM
NCIH2004RT_SOFT_TISSUE	0.0737	> 10 µM
NCIH2009_LUNG	0.149	5.8 µM

Test System	1 - AUC of viability dose-response curve (BI-2493 [1])	IC50 of cell viability (BI-2493 [2])
NCIH2023_LUNG	0.208	2.57 µM
NCIH2030_LUNG	0.206	3.34 µM
NCIH2077_LUNG	0.182	8.95 µM
NCIH2087_LUNG	0.104	3.99 µM
NCIH2110_LUNG	0.0708	6.61 µM
NCIH2122_LUNG	0.138	3.6 µM
NCIH2126_LUNG	0.142	9.82 µM
NCIH2170_LUNG	0.0861	> 10 µM
NCIH2171_LUNG	0.0377	9.88 µM
NCIH2172_LUNG	0.0555	8.7 µM
NCIH2228_LUNG	0.0876	7.89 µM
NCIH2347_LUNG	0.138	4.63 µM
NCIH2444_LUNG	0.102	6.69 µM
NCIH2452_PLEURA	0.00394	> 10 µM
NCIN87_STOMACH	0.00691	9.6 µM
NCO2_HAEMATOPOIETIC_AND_LYMPHOID_TISSUE	0.117	4.33 µM
NIHOVCAR3_OVARY	0.103	8.37 µM
NOMO1_HAEMATOPOIETIC_AND_LYMPHOID_TISSUE	0.38	0.331 µM
NOZ_LIVER	0.0154	9.22 µM
NP2_CENTRAL_NERVOUS_SYSTEM	0.085	9.05 µM
NP3_CENTRAL_NERVOUS_SYSTEM	0.0412	8.21 µM
NP5_CENTRAL_NERVOUS_SYSTEM	0.108	3.54 µM
NUDHL1_HAEMATOPOIETIC_AND_LYMPHOID_TISSUE	0.441	0.306 µM
NUGC3_STOMACH	0.236	2.68 µM

From the supplement of paper PMC11962398
